Patent US20220298115A1, “SMALL MOLECULE INHIBITORS OF ACETYL COENZYME A SYNTHETASE SHORT CHAIN 2 (ACSS2)” (Curadev Pharma Pvt. Ltd., priority 2019, published 2022)

Columns and labels:
human ACSS2 = target: T1, human ACSS2 (Homo sapiens, UniProt Q9NR19); assay: ACSS2 enzyme assay (acetyl-CoA formation, LC-MS/MS); type: biochemical; conditions: cytosolic fraction of BT474 cells as ACSS2 source; 100 μM acetate, CoA and ATP; 2 h at 25° C.; read-out: Enzyme Activity (IC50 range)
T1 construct: The cytosolic fraction of BT474 cells was used as a source of the ACSS2 enzyme; endogenous in cells; host or cells: BT474 cells (cytosolic fraction)
T1 sequence (Q9NR19 whole entry): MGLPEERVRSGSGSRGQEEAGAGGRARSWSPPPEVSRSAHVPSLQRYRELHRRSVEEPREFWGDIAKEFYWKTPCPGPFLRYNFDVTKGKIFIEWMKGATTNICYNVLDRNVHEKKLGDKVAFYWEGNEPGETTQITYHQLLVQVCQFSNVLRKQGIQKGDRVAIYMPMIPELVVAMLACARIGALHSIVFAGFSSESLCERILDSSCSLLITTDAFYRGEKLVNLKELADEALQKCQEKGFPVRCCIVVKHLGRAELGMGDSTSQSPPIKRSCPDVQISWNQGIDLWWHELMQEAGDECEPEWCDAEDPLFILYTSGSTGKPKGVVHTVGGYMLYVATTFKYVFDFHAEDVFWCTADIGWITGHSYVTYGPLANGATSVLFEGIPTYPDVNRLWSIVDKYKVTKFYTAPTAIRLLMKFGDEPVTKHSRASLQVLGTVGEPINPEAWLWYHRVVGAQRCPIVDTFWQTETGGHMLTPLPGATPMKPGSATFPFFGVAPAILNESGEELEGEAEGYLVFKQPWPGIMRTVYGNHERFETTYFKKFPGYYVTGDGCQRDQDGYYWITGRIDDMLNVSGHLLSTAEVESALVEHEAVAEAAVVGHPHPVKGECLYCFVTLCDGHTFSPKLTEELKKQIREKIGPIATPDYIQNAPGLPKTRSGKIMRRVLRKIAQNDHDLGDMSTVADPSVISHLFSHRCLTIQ
Summary of the method: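 Enzyme source was BT474 cytosolic fraction (100 ng), preincubated 5 min with compound in 25 mM Tris-HCl pH7.4, 1 mM MgCl2, 1 mM DTT, 0.05% Tween20, 1% DMSO. Reaction started with 100 μM each of acetate, CoA and ATP, 2 h at 25 °C, stopped with TCA; acetyl-CoA quantified by LC-MS/MS.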

[1] = system: [14C] acetate incorporation in macromolecules, BT474 cells; assay: Cell based [14C] acetate incorporation assay; conditions: Homo sapiens, BT-474, 3 h at 37° C., read-out: Cellular Activity (IC50 range)
Summary of the method: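 BT474 cells (4×10^4/well, plated overnight) were preincubated with compound for 10 min at 37°C in HBSS. They were then given 0.1 μCi [14C]acetate plus 10 μM unlabelled acetate (both in the added acetate solution) for 3 h at 37°C, 5% CO2. Label incorporated into macromolecules was harvested onto PEI-treated filters and counted by scintillation.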

SMILES | IC50 (human ACSS2) [nM] | IC50 [1] [nM]
CCC(O)CNC(=O)Nc1cnc2nc(-c3ccccc3)c(-c3ccccc3)cc2c1 (stereo not shown) [Example 145, 1-(6,7-Diphenyl-1,8-naphthyridin-3-yl)-3-(2-hydroxybutyl)urea] | ≤ 1000 | ≤ 1000
CCC(O)CNC(=O)Nc1ccc2nc(-c3ccccc3F)c(-c3ccccc3F)cc2c1 (stereo not shown) [Example 4, 1-(2,3-bis(2-fluorophenyl)quinolin-6-yl)-3-(2-hydroxybutyl) urea] | < 100 | < 100
CCC(O)CNC(=O)Nc1ccc2nc(-c3ccncc3)c(-c3ccccc3F)cc2c1 (stereo not shown) [Example 34, 1-(3-(2-fluorophenyl)-2-(pyridin-4-yl)quinolin-6-yl)-3-(2-hydroxybutyl) urea] | < 100 | < 100
CCC(O)CNC(=O)Nc1ccc2nc(C)c(-c3ccccc3F)c(C(N)=O)c2c1 (stereo not shown) [Example 73, 3-(2-fluorophenyl)-6-(3-(2-hydroxybutyl)ureido)-2-methylquinoline-4-carboxamide] | < 100 | ≤ 1000
CCC(O)CNC(=O)Nc1ccc2nc(-c3ccccc3)c(-c3ccccc3)c(C(=O)OC)c2c1 (stereo not shown) [Example 48, methyl 6-(3-(2-hydroxybutyl)ureido)-2,3-diphenylquino-line-4-carboxylate] | < 100 | < 100
CCC(O)CNC(=O)Nc1ccc2nc(-c3ccccc3)c(-c3ccccc3)c(-c3ncco3)c2c1 (stereo not shown) [Example 97, 1-(2-hydroxybutyl)-3-(4-(oxazol-2-yl)-2,3-diphenylquinolin-6-yl)urea] | < 100 | < 100
CCC(O)CNC(=O)Nc1ccc2nc(-c3ccccc3N)c(-c3ccccc3F)cc2c1 (stereo not shown) [Example 54, 1-(2-(2-aminophenyl)-3-(2-fluorophenyl)quinolin-6-yl)-3-(2-hydroxybutyl) urea] | < 100 | < 100
CC[C@@H](O)CNC(=O)Nc1ccc2nc(C)c(-c3ccccc3C)cc2c1 [Example 83, (R)-1-(2-hydroxybutyl)-3-(2-methyl-3-(o-tolyl)quinolin-6-yl)urea] | < 100 | < 100
CCC(O)CNC(=O)Nc1ccc2nc(-c3cnn(C)c3)c(-c3ccccc3)cc2c1 (stereo not shown) [Example 43, 1-(2-hydroxybutyl)-3-(2-(1-methyl-1H-pyrazol-4-yl)-3-phenylquinolin-6-yl)urea] | < 100 | ≤ 1000
CCCCNC(=O)Nc1ccc2nc(-c3ccccc3)c(-c3ccccc3F)cc2c1 [Example 16, 1-butyl-3-(3-(2-fluorophenyl)-2-phenylquinolin-6-yl)urea] | < 100 | < 100
CCC(O)CNC(=O)Nc1ccc2nc(-c3ccc(F)cc3)c(-c3ccc(F)cc3)cc2c1 (stereo not shown) [Example 17, 1-(2,3-bis(4-fluorophenyl)quinolin-6-yl)-3-(2-hydroxybutyl) urea] | < 100 | < 100
CC[C@@H](O)CNC(=O)Nc1ccc2nc(-c3ccccc3)c(C)c(C(N)=O)c2c1 [Example 109, (R)-6-(3-(2-hydroxybutyl)ureido)-3-methyl-2-phenylquinoline-4-carboxamide] | < 100 | ≤ 1000
CCC(O)CNC(=O)Nc1ccc2nc(C3=CCCCC3)c(-c3ccccc3F)cc2c1 (stereo not shown) [Example 32, 1-(2-(cyclohex-1-en-1-yl)-3-(2-fluorophenyl)quinolin-6-yl)-3-(2-hydroxybutyl) urea] | ≤ 1000 | ≤ 1000
CCC(=O)CCC(=O)Nc1ccc2nc(-c3ccccc3OC)c(-c3ccccc3)cc2c1 [Example 120, N-(2-(2-methoxy-phenyl)-3-phenyl-quinolin-6-yl)-4-oxohexan-amide] | < 100 | < 100
